Test results from US7544701B2, “Sulfonyldihydrobenzimidazolone compounds as 5-hydroxytryptamine-6 ligands” (Wyeth, priority 2003, dated 2009).

Molecular target: T1, human cloned 5-HT6 receptors (Homo sapiens, UniProt P50406)
T1 construct: expressed in transfected cells; host or cells: Hela cells
Assay: 5-HT6 binding affinity ([3H]-LSD displacement, membranes of Hela cells expressing human cloned 5-HT6 receptors)
Details: [3H]-LSD 3.0 nM, 120 min, room temperature, Hela cell membranes
Protocol: The affinity of test compounds for the serotonin 5-HT6 receptor is evaluated in the following manner. Cultured Hela cells expressing human cloned 5-HT6 receptors are harvested and centrifuged at low speed (1,000×g) for 10.0 min to remove the culture media. The harvested cells are suspended in half volume of fresh physiological phosphate buffered saline solution and recentrifuged at the same speed. This operation is repeated. The collected cells are then homogenized in ten volumes of 50 mM Tris.HCl (pH 7.4) and 0.5 mM EDTA. The homogenate is centrifuged at 40,000×g for 30.0 min and the precipitate is collected. The obtained pellet is resuspended in 10 volumes of Tris.HCl buffer and recentrifuged at the same speed. The final pellet is suspended in a small volume of Tris.HCl buffer and the tissue protein content is determined in aliquots of 10-25 μl volumes. Bovine Serum Albumin is used as the standard in the protein determination according to the method described in Lowry et al., J. Biol. Chem., 193:265 (1951). The volume of the suspended cell membranes is adjusted to give a tissue protein concentration of 1.0 mg/ml of suspension. The prepared membrane suspension (10 times concentrated) is aliquoted in 1.0 ml volumes and stored at −70° C. until used in subsequent binding experiments.
Binding experiments are performed in a 96 well microtiter plate format, in a total volume of 200 μl. […] The test compounds are added in 20.0 μl volume.
The reaction is allowed to proceed in the dark for 120 min at room temperature, at which time, the bound ligand-receptor complex is filtered off on a 96 well unifilter with a Packard Filtermate® 196 Harvester. The bound complex caught on the filter disk is allowed to air dry and the radioactivity is measured in a Packard TopCount® equipped with six photomultiplier detectors, after the addition of 40.0 μl Microscint®-20 scintillant to each shallow well. The unifilter plate is heat-sealed and counted in a PackardTopCount® with a tritium efficiency of 31.0%.
Binding in the presence of varying concentrations of test compound is expressed as a percentage of specific binding in the absence of test compound. The results are plotted as log % bound versus log concentration of test compound. […] A linear regression line of data points is plotted, from which the IC50 value is determined and the Ki value is determined based upon the following equation: Ki=IC50/(1+L/KD) where L is the concentration of the radioactive ligand used and KD is the dissociation constant of the ligand for the receptor, both expressed in nM.

T1 sequence (P50406 whole entry): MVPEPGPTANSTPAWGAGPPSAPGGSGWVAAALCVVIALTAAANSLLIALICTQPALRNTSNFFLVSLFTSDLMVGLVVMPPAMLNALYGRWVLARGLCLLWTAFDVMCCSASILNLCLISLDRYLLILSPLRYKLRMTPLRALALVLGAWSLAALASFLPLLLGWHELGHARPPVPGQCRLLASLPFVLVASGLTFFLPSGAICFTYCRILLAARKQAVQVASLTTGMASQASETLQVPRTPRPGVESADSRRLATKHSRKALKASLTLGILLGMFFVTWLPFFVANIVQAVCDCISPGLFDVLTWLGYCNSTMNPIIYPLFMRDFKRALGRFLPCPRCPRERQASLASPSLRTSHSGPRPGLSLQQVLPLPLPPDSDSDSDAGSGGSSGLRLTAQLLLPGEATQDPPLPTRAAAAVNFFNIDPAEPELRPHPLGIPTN

Question: How did the Ki turn out when O=c1n(C2=CCNCC2)c2ccccc2n1S(=O)(=O)c1cc(Br)c(Cl)s1 [Example 46, 1-[(4-bromo-5-chlorothien-2-yl)sulfonyl]-3-(1,2,3,6-tetrahydropyridin-4-yl)-1,3-dihydro-2H-benzimidazol-2-one] was run?
Answer: 9 nM

Question: For Cc1c(S(=O)(=O)n2c(=O)n(C3=CCNCC3)c3ccccc32)sc2ccc(Cl)cc12 [Example 48, 1-[(5-chloro-3-methyl-1-benzothien-2-yl)sulfonyl]-3-(1,2,3,6-tetrahydropyridin-4-yl)-1,3-dihydro-2H-benzimidazol-2-one], which Ki is on record?
Answer: 49 nM

Question: How did the Ki turn out when O=c1n(C2=CCNCC2)c2ccccc2n1S(=O)(=O)c1c(Cl)nc2sccn12 [Example 49, 1-[(6-chloroimidazo[2,1-b][1,3]thiazol-5-yl)sulfonyl]-3-(1,2,3,6-tetrahydropyridin-4-yl)-1,3-dihydro-2H-benzimidazol-2-one] was run?
Answer: 2 nM

Question: Which Ki does the source give for O=c1n(C2=CCNCC2)c2ccccc2n1S(=O)(=O)c1c(Cl)nc2ccccn12 [Example 51, 1-[(2-chloroimidazo[1,2-a]pyridin-3-yl)sulfonyl]-3-(1,2,3,6-tetrahydropyridin-4-yl)-1,3-dihydro-2H-benzimidazol-2-one] here?
Answer: 19 nM

Question: Which Ki does the source give for Cc1nc(S(=O)(=O)n2c(=O)n(C3=CCNCC3)c3ccccc32)cn1C [Example 52, 1-[(1,2-dimethyl-1H-imidazol-4-yl)sulfonyl]-3-(1,2,3,6-tetrahydropyridin-4-yl)-1,3-dihydro-2H-benzimidazol-2-one] here?
Answer: 133 nM

Question: How did the Ki turn out when Cc1nn(C)c(Cl)c1S(=O)(=O)n1c(=O)n(C2=CCNCC2)c2ccccc21 [Example 53, 1-[(5-chloro-1,3-dimethyl-1H-pyrazol-4-yl)sulfonyl]-3-(1,2,3,6-tetrahydropyridin-4-yl)-1,3-dihydro-2H-benzimidazol-2-one] was run?
Answer: 28 nM

Question: Which Ki does the source give for Cc1noc(C)c1S(=O)(=O)n1c(=O)n(C2=CCNCC2)c2ccccc21 [Example 54, 1-[(3,5-dimethylisoxazol-4-yl)sulfonyl]-3-(1,2,3,6-tetrahydropyridin-4-yl)-1,3-dihydro-2H-benzimidazol-2-one] here?
Answer: 51 nM

Question: For O=c1n(C2=CCNCC2)c2ccccc2n1S(=O)(=O)c1cccc2nsnc12 [Example 55, 1-(2,1,3-benzothiadiazol-4-ylsulfonyl)-3-(1,2,3,6-tetrahydropyridin-4-yl)-1,3-dihydro-2H-benzimidazol-2-one], which Ki is on record?
Answer: 12 nM
